Measured values from patent publication US20240175039A1, “ENGINEERING PROBIOTIC FOR DEGRADING URIC ACID, AND CONSTRUCTION METHOD THEREFOR AND USE THEREOF” (SHANDONG UNIVERSITY, priority 2022, published 2024).

How the values were obtained:
[1] = tested on: Bacillus subtilis PucLM (complete PucL co-expressed with PucM, wild type; PucM SEQ ID NO: 2); experiment: UA degradation kinetics (Km, Vmax), cell extract of EcN::pMCS2-Ptrc-pucLM; type: biochemical
Excerpt: (§1) The pucL (Gene ID: 936669) and pucM (Gene ID: 937977) genes from Bacillus subtilis were codon-optimized and synthesized by Beijing Genomics Institute (BGI, Beijing). Asp-214 and Gln-438 of PucL were mutated to Val and Arg, respectively. The mutated pucL was named as pucL^M, and pucL^M was codon-optimized and synthesized by Beijing Genomics Institute (BGI, Beijing). The vhb gene (Protein ID: WP_019959060.1) from Vitreoscilla sp. C1 was codon-optimized and synthesized by Beijing Genomics Institute (BGI, Beijing). The ygfU (Gene ID: 949017) and the katG (Gene ID: 948431) genes were PCR amplified from E. coli MG1655 genomic DNA.
(§2) (1) UA was measured in a buffer solution using a spectrophotometer by directly measuring the absorbance at 293 nm. Firstly, UA standard solutions of 0, 10 μM, 15 μM, 20 μM, 30 μM, 40 μM, 50 μM, 60 μM, and 70 μM were prepared to plot an UA concentration standard curve, obtaining a curve R2 of 0.9997. Subsequently, appropriate dilutions were performed for measurement, and UA concentration was determined.
The activity of PucL^T can be enhanced by the D44V and Q268R mutations. We directly mutated two sites in the complete PucL (PucLM) and co-expressed them with PucM in EcN (EcN::pMCS2-Ptrc-pucL^MM). Determined by using cell extracts, the Vmax of PucL^MM increased by approximately 1.8 times compared to PucLM. […] Due to the increase in Km, the UA degradation ability of the whole cell of EcN::pMCS2-Ptrc-pucL^MM was weakened when the concentration of UA was low (FIG. 2C).

[2] = target: T1, Bacillus subtilis PucL^MM (PucL variant PucL^M, Asp-214 to Val and Gln-438 to Arg (D44V and Q268R in PucL^T), SEQ ID NO: 1, co-expressed with PucM, SEQ ID NO: 2 (Bacillus subtilis, UniProt O32141, D214V/Q438R)); experiment: UA degradation kinetics (Km, Vmax), cell extract of EcN::pMCS2-Ptrc-pucL^MM; type: biochemical; settings: cell extracts
T1 sequence (O32141 1-494 D214V/Q438R): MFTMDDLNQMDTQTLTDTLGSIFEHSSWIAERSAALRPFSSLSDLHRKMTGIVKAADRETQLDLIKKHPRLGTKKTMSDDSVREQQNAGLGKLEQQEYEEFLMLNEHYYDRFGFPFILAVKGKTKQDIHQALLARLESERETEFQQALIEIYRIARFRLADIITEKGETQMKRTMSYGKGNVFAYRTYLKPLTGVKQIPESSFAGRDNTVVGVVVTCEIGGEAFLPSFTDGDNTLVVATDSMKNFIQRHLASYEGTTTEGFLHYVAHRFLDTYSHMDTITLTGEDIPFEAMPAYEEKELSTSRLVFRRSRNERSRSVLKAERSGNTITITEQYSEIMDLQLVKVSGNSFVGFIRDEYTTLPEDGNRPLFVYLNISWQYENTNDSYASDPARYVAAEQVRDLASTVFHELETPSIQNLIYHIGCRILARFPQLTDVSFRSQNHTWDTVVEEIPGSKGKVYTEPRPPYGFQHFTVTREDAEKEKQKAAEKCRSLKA
T1 sequence (O32142 1-114 partner): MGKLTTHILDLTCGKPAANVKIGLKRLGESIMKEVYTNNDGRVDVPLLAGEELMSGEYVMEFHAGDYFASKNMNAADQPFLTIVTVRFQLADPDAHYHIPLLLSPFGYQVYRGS
Excerpt: (§3) The urate oxidase gene is specifically PucL^M and PucM, whose nucleotide sequences are shown as SEQ ID NO: 1 and SEQ ID NO: 2, respectively; they act together, and in the present invention, they are named PucL^MM.
as §1
(§4) (1) UA was measured in a buffer solution using a spectrophotometer by directly measuring the absorbance at 293 nm. […] Subsequently, appropriate dilutions were performed for measurement, and UA concentration was determined.
(§5) The activity of PucL^T can be enhanced by the D44V and Q268R mutations. […] Determined by using cell extracts, the Vmax of PucL^MM increased by approximately 1.8 times compared to PucLM. […]

[3] = substrate: O=c1[nH]c(=O)c2[nH]c(=O)[nH]c2[nH]1; experiment: UA degradation kinetics (Km, Vmax), cell extract of EcN::pMCS2-Ptrc-pucL^T; type: biochemical, Bacillus subtilis; settings: other: cell extract, recombinant EcN::pMCS2-Ptrc-pucL^T
Excerpt: as §1, §2
The UriC domain of PucL (PucL^T) catalyzes step 1 in the UA degradation (FIG. 1), and steps 2 and 3 can occur spontaneously. […]
as §5

[4] = substrate: O=c1[nH]c(=O)c2[nH]c(=O)[nH]c2[nH]1; experiment: UA degradation kinetics (Km, Vmax), cell extract of EcN::pMCS2-Ptrc-pucL^MM; type: biochemical, Bacillus subtilis; settings: other: cell extract, recombinant EcN::pMCS2-Ptrc-pucL^MM
Excerpt: as §3, §1, §4, §5

[5] = cell extract, recombinant EcN::pMCS2-Ptrc-pucLM

**Q.** For O=c1[nH]c(=O)c2[nH]c(=O)[nH]c2[nH]1 [UA, uric acid], which Km [1, 5] is on record?
**A.** 17.2 µM

**Q.** What about the Vmax [1, 5] of the same molecule?
**A.** 13.88 µM/mg/min

**Q.** What about the “Km of PucLM compared with PucL^T” value ([1]; cell extracts) of the same molecule?
**A.** significantly reduced

**Q.** And the “Vmax of PucLM compared with PucL^T” value ([1]; cell extracts)?
**A.** similar

**Q.** What about the “Km increase of PucL^MM compared to PucLM” value [2] of the same molecule?
**A.** approximately 2.0 times

**Q.** And the “Vmax increase of PucL^MM compared to PucLM” value [2]?
**A.** approximately 1.8 times

B1: Bacillus subtilis PucL^T (UriC domain of PucL, urate oxidase) (Bacillus subtilis subsp. subtilis str. 168) (protein)
chain: MKRTMSYGKGNVFAYRTYLKPLTGVKQIPESSFAGRDNTVVGVDVTCEIGGEAFLPSFTDGDNTLVVATDSMKNFIQRHLASYEGTTTEGFLHYVAHRFLDTYSHMDTITLTGEDIPFEAMPAYEEKELSTSRLVFRRSRNERSRSVLKAERSGNTITITEQYSEIMDLQLVKVSGNSFVGFIRDEYTTLPEDGNRPLFVYLNISWQYENTNDSYASDPARYVAAEQVRDLASTVFHELETPSIQNLIYHIGCRILARFPQLTDVSFQSQNHTWDTVVEEIPGSKGKVYTEPRPPYGFQHFTVTREDAEKEKQKAAEKCRSLKA
**Q.** What does the source list for B1?
**A.** Km [3]: 61.03 µM; Vmax [3]: 12.3 µM/min/mg

B2: Bacillus subtilis PucL^MM (PucL variant PucL^M, Asp-214 to Val and Gln-438 to Arg (D44V and Q268R in PucL^T), SEQ ID NO: 1, co-expressed with PucM, SEQ ID NO: … (protein)
chain: MFTMDDLNQMDTQTLTDTLGSIFEHSSWIAERSAALRPFSSLSDLHRKMTGIVKAADRETQLDLIKKHPRLGTKKTMSDDSVREQQNAGLGKLEQQEYEEFLMLNEHYYDRFGFPFILAVKGKTKQDIHQALLARLESERETEFQQALIEIYRIARFRLADIITEKGETQMKRTMSYGKGNVFAYRTYLKPLTGVKQIPESSFAGRDNTVVGVVVTCEIGGEAFLPSFTDGDNTLVVATDSMKNFIQRHLASYEGTTTEGFLHYVAHRFLDTYSHMDTITLTGEDIPFEAMPAYEEKELSTSRLVFRRSRNERSRSVLKAERSGNTITITEQYSEIMDLQLVKVSGNSFVGFIRDEYTTLPEDGNRPLFVYLNISWQYENTNDSYASDPARYVAAEQVRDLASTVFHELETPSIQNLIYHIGCRILARFPQLTDVSFRSQNHTWDTVVEEIPGSKGKVYTEPRPPYGFQHFTVTREDAEKEKQKAAEKCRSLKA
**Q.** What does the source list for B2?
**A.** Km [4]: 52.54 µM; Vmax [4]: 38.6 µM/min/mg
